In patent publication US8535740B2, “Compositions from Nigella sativa” (priority 2002, dated 2013):

Experiments:
AMPK = AMPK activation (pT172-AMPK) in C2C12 myocytes; format: cell-based, mouse; conditions: 1 mM
Description: Cell culture—Mouse C2C12 myoblasts were obtained from American Type Culture Collection (Manassas, Va.), and were maintained in Dulbecco's modified Eagle's medium (DMEM) supplemented with 10% fetal bovine serum at 37° C. under a humidified atmosphere of 5% CO2.
C2C12 cells were seeded at an initial density of 6×10^4 cells/cm^2 in 24-well plates. For two days, the cells were allowed grow to reach confluence. Following confluence, the cells were forced to differentiate into myocytes by culturing in DMEM supplemented with 2% horse serum for seven days.
Treatment—On Day 8 to 10 post differentiation, C2C12 myocytes were incubated in serum-free DMEM plus 0.5% BSA (bovine serum albumin) for three hours. […]
Measuring activated AMPKa—pT^172-AMPK was quantified using the Biosource AMPK Immunoassay Kit (Camarillo, Calif.) without modification. Protein content of the cell lysates was determined with the Active Motif fluorescent protein assay reagent (Carlsbad Calif., Hoefelschweiger, B. K., Duerkop, A., and Wolfbeis, O. S. Novel type of general protein assay using a chromogenic and fluorogenic amine-reactive probe. Anal Biochem 2005, 344, 122-9). A Packard Fluorocount spectrofluorometer (Model #BF 10000, Meridan, Conn.) was used for protein determination and a MEL312e BIO-KINETICS READER (Bio-Tek Instruments, Winooski, Vt.) was used for quantification of pT^172-AMPK. […]

[1] = system: adiponectin secretion in 3T3-L1 adipocytes; experiment: Adiponectin secretion in t10-CLA-stimulated 3T3-L1 adipocytes; format: cell-based, murine
Description: Treatment—Test materials were added four hours prior to the addition of t10-CLA at a concentration of 50 μM. Following overnight incubation, the supernatant media were sampled for determination of IL-6 and adiponectin. Adiponectin assay—The adiponectin secreted into the medium was quantified using the Mouse Adiponectin Quantikine® Immunoassay kit with no modifications (R&D Systems, Minneapolis, Minn.). […] Statistical Calculations and Interpretation—Test materials and were assayed in duplicate, while solvent controls were replicated eight times. IL-6 and adiponectin secretion were represented relative to the IL-6 and adiponectin secretion of the t10-CLA only controls as the IL-6 and adiponectin index and differences among the means were analyzed by the student's t-test assuming a five percent probability of a type I error (Excel; Microsoft, Redmond, Wash.).

Caco-2 monolayers = experiment: t10-CLA-induced loss of transepithelial electrical resistance in Caco-2 monolayers; format: cell-based, human; conditions: 50 μM t10-CLA stimulus, positive control set to 100; each material at its tabulated concentration (TQ 5.0, NS8 0.11, NS9 0.99, NS10 0.012, NSSpent#2 0.0005 μg TQ equivalents/mL; Spent#1 5 μg/mL)
From the text: Caco-2 Cells-The protocol for growing and differentiation the human Caco-2 colon andenocarcinoma cells was a modification of Protocol 3 as described by Yamashita et al. [[…]., and Furuyama, Y. (2002) New and better protocols for a short-term Caco-2 cell culture system, J Pharm Sci 91, 669-679]. Caco-2 Human Colon Adenocarcinoma cells were obtained from ATCC (Rockville, Md.; catalog #HTB-37) and maintained in a growth media: DMEM (Dulbecco's Modified Eagles Medium 1×) containing L-glutamine, glucose; Cellgro catalog #35-010CV with the following additions: (1) Penicillin (5,000 IU/mL)/Streptomycin (5,000 μg/mL) Cellgro catalog #30-001C1, (2) 10% FBS-Fetal Bovine Serum, Characterized; Hyclone catalog #SH30071.3, and (3) 1% NEAA-Non Essential Amino Acids; Cellgro catalog #25-025-CI; cells were cultured at 37 C in a humidified air-5% CO2 atmosphere in T175 flasks. Differentiation of Caco-2 cells to intestinal epithelial cells-BIOCOAT^R HTS Caco-2 Assay System kits (Becton Dickinson, N.J.; catalog #354801) consisting of 24-well fibrillar collagen coated inserts and feeder trays were used in all experiments and plated as follows. Media was removed from the T175 flasks and cells were washed with 10 mLs PBS (phosphate buffered saline 1× without Ca^++, without Mg^++; Cellgro #25-053-CI). PBS was removed and 5 mL of Trypsin/EDTA (1×, 0.25% Trypsin/2.21 mM EDTA in HBSS; Cellgro #25-053-CI) were added to the flask and the flask placed at 37 C until cells were visibly floating, approximately 3-5 minutes. Five mL of growth media were added to the flask to neutralize the trypsin. This solution was then transferred to a sterile 50 mL tube. Eight μL were sampled and placed in a hemocytometer for counting under a microscope. Five-hundred μL of cell solution were placed in the upper chamber of each insert so that the final density per well was at least 6.6×10^5 cells/cm^2. Thirty-five mL of growth media were then added to the feeder tray and plate incubated at 37 C with 5% CO2 and 100% humidity for 20-24 hours. […]

[2] = system: IL-6 secretion in 3T3-L1 adipocytes; experiment: IL-6 secretion in t10-CLA-stimulated 3T3-L1 adipocytes; format: cell-based, murine
Description: Treatment—Test materials were added four hours prior to the addition of t10-CLA at a concentration of 50 μM. Following overnight incubation, the supernatant media were sampled for determination of IL-6 and adiponectin. Interleukin-6 assay—The IL-6 secreted into the medium in response to […] stimulation was quantified using the Quantikine® Mouse IL-6 Immunoassay kit with no modifications (R&D Systems, Minneapolis, Minn.). […] All supernatant media samples were diluted 1:30 for quantification. Statistical Calculations and Interpretation—Test materials and were assayed in duplicate, while solvent controls were replicated eight times. IL-6 and adiponectin secretion were represented relative to the IL-6 and adiponectin secretion of the t10-CLA only controls as the IL-6 and adiponectin index and differences among the means were analyzed by the student's t-test assuming a five percent probability of a type I error (Excel; Microsoft, Redmond, Wash.).

[3] = relative to t10-CLA only control (100), 50 μM t10-CLA, overnight, each material at its tabulated concentration

Row | SMILES | increase in pT172-AMPK relative to DMSO negative controls (AMPK; average over ten independent assays, 95% CI=1.26-2.21) [fold] | AMPK activation (AMPK; in assays run with N. sativa supercritical CO2 extracts) [fold] | reduction in adiponectin secretion relative to controls ([1]; 50 μM) [%] | Adiponectin Index [1, 3] | Relative Loss of TEER (Caco-2 monolayers) | increase in IL-6 secretion relative to controls ([2]; 50 μM) [fold] | IL-6 Index [2, 3]
1 | NC(=O)c1ncn([C@@H]2O[C@H](CO)[C@@H](O)[C@H]2O)c1N [AICAR, 5-Aminoimidazole-4-carboxamide ribonucleoside] | 1.67 | 1.45 | – | – | – | – | –
2 | CCCCC/C=C\C=C\CCCCCCCCC(=O)O [t10-CLA, trans-10, cis12-Conjugated Linoleic Acid] | – | – | 65 | 100 ± 14 | 100 ± 5.81 | 8 | 100 ± 11
